The values below come from the supplement of paper PMC4862054.

Holding throughout (assay): normalised viability (% of control), CellTiter-Blue; higher = more viable cells (about 100 = DMSO control)
Conditions in all cases: incubation time: 72 h

The subject of test [1] is DU-4475. How it is done:
(§1)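 DSRT, CellTiter-Blue viability, 72 h incubation. Signal is normalised to DMSO and benzethonium chloride controls. Value is the normalised response at dose 8.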

The test system of test [2] is HDQ-P1. How it is done: as §1
The test system of test [3] is MDA-MB-453. How it is done: as §1
Test [4] has as its system CAL-51. As for the experimental part: as §1
Test [5] deals with CAL-148. How it is done: as §1
In test [6] the test system is CAL-85-1. How it is done:
as §1

For test [7], the system named is DU-4475. As for the experimental part:
(§2)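 DSRT, CellTiter-Blue viability, 72 h incubation. Signal is normalised to DMSO and benzethonium chloride controls. Value is the normalised response at dose 6.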
This is another data set of the same source.

In test [8] the test system is HDQ-P1. As for the experimental part: as §2
This is another data set of the same source.

Test [9] deals with MDA-MB-453. How it is done:
as §2
The source holds these as a separate data set.

Test [10] concerns CAL-51. How it is done: as §2
The source holds these as a separate data set.

For test [11], the system named is CAL-148. How it is done: as §2
The source holds these as a separate data set.

The subject of test [12] is CAL-85-1. How it is done: as §2
This is another data set of the same source.

In test [13] the test system is DU-4475. As for the experimental part: (§3)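 DSRT, CellTiter-Blue viability, 72 h incubation. Signal is normalised to DMSO and benzethonium chloride controls. Value is the normalised response at dose 7.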
The source holds these as a separate data set.

Test [14] has as its system HDQ-P1. How it is done:
as §3
The source holds these as a separate data set.

Test [15] concerns MDA-MB-453. As for the experimental part: as §3
This is another data set of the same source.

Test [16] has as its system CAL-51. As for the experimental part:
as §3
The source holds these as a separate data set.

Test [17] relates to CAL-148. How it is done: as §3
This is another data set of the same source.

The test system of test [18] is CAL-85-1. As for the experimental part:
as §3
The source holds these as a separate data set.

Molecules are shown by their SMILES. Values joined by “and” are separate entries in the source; they are usually repeats but may differ in a detail not shown here. Equal entries are not always repeated.

Regarding `NC(=O)c1cccc2cn(-c3ccc([C@@H]4CCCNC4)cc3)nc12` [MK-4827] (3000 nM), the normalised viability worked out at 58.6% in the test on DU-4475 [1]; 91.3% in the test on HDQ-P1 [2]; 101% in the test on MDA-MB-453 [3]; 48.8% in the test with CAL-51 [4]; 73.5% with CAL-148 [5]; 85.8% in the test with CAL-85-1 [6].

Turning to `N[C@@H](Cc1ccc(N(CCCl)CCCl)cc1)C(=O)O` [Melphalan] (29.7 nM), the normalised viability in the test on DU-4475 [7] amounted to 102%; in the test on HDQ-P1 [8] it was 81.1%; in the test on MDA-MB-453 [9], 110%; with CAL-51 [10], 104%; with CAL-148 [11], 98.7%; with CAL-85-1 [12] it was 88.3%.

On to `N[C@@H](Cc1ccc(N(CCCl)CCCl)cc1)C(=O)O` [Melphalan] (99 nM), for which the normalised viability in the test on DU-4475 [13] is 86.2%; with HDQ-P1 [14], 100%; in the test on MDA-MB-453 [15], 101%; in the test on CAL-51 [16] it was 109%; in the test with CAL-148 [17], 106%; in the test with CAL-85-1 [18] it was 79.4%.

In the case of `N[C@@H](Cc1ccc(N(CCCl)CCCl)cc1)C(=O)O` [Melphalan] (297 nM), the normalised viability in the test with DU-4475 [1] was 88.9%; in the test on HDQ-P1 [2], 100%; in the test with MDA-MB-453 [3] it was 110%; in the test with CAL-51 [4], 106%; with CAL-148 [5] it was 100%; with CAL-85-1 [6], 97.9%.

Take `Cc1c(C(=O)Nc2ccc(N3C[C@@H](C)O[C@@H](C)C3)nc2)cccc1-c1ccc(OC(F)(F)F)cc1` [NVP-LDE225] (300 nM): the normalised viability with DU-4475 [7] came out at 101%; in the test with HDQ-P1 [8], 36.5%; with MDA-MB-453 [9] it was 88.1%; in the test with CAL-51 [10], 105%; with CAL-148 [11], 95.2%; in the test on CAL-85-1 [12] it was 108%.

In the case of `Cc1c(C(=O)Nc2ccc(N3C[C@@H](C)O[C@@H](C)C3)nc2)cccc1-c1ccc(OC(F)(F)F)cc1` [NVP-LDE225] (1000 nM), the normalised viability with DU-4475 [13] is 118%; in the test with HDQ-P1 [14], 90.1%; in the test on MDA-MB-453 [15], 92.9%; in the test on CAL-51 [16], 99.5%; with CAL-148 [17] it was 107%; with CAL-85-1 [18], 98.8%.

Regarding `Cc1c(C(=O)Nc2ccc(N3C[C@@H](C)O[C@@H](C)C3)nc2)cccc1-c1ccc(OC(F)(F)F)cc1` [NVP-LDE225] (3000 nM), the normalised viability in the test with DU-4475 [1] stood at 121%; in the test on HDQ-P1 [2], 84.1%; in the test with MDA-MB-453 [3], 75.2%; in the test on CAL-51 [4], 101%; in the test on CAL-148 [5], 107%; in the test with CAL-85-1 [6], 109%.

Regarding `O=C(c1cc(Cc2n[nH]c(=O)c3ccccc23)ccc1F)N1CCN(C(=O)C2CC2)CC1` [Olaparib] (300 nM), the normalised viability is 83.2% in the test with DU-4475 [7]; 73.9% in the test with HDQ-P1 [8]; 98% with MDA-MB-453 [9]; 93.2% with CAL-51 [10]; 85.3% with CAL-148 [11]; 92.2% in the test with CAL-85-1 [12].

As for `O=C(c1cc(Cc2n[nH]c(=O)c3ccccc23)ccc1F)N1CCN(C(=O)C2CC2)CC1` [Olaparib] (3000 nM), the normalised viability was determined as 72.4% in the test with DU-4475 [1]; 100% in the test on HDQ-P1 [2]; 93% in the test on MDA-MB-453 [3]; 68.9% in the test on CAL-51 [4]; 64.2% with CAL-148 [5]; 71.4% in the test with CAL-85-1 [6].

In the case of `CO[C@H](C(=O)[C@@H](O)[C@@H](C)O)[C@@H]1Cc2cc3cc(O[C@H]4C[C@@H](O[C@@H]5C[C@@H](O)[C@H](O)[C@@H](C)O5)[C@H](O)[C@@H](C)O4)c(C)c(O)c3c(O)c2C(=O)[C@H]1O[C@H]1C[C@@H](O[C@@H]2C[C@@H](O)[C@@H](O[C@@H]3C[C@](C)(O)[C@H](O)[C@@H](C)O3)[C@@H](C)O2)[C@H](O)[C@@H](C)O1` [Plicamycin] (300 nM), the normalised viability in the test with DU-4475 [7] is 0.65% and -0.39%; with HDQ-P1 [8], 32.7% and 20.9%; with MDA-MB-453 [9], 17.4% and 13.2%; in the test with CAL-51 [10], 18.3% and 13.9%; in the test with CAL-148 [11], 2.94% and 7.64%; in the test on CAL-85-1 [12], 13% and 11.5%.

As for `C[C@]12C=CC(=O)C=C1CC[C@@H]1[C@@H]2C(=O)C[C@@]2(C)[C@H]1CC[C@]2(O)C(=O)CO` [Prednisone] (300 nM), the normalised viability with DU-4475 [7] stood at 108%; in the test on HDQ-P1 [8], 50.2%; in the test with MDA-MB-453 [9], 91.8%; with CAL-51 [10] it was 104%; in the test with CAL-148 [11] it was 102%; in the test on CAL-85-1 [12], 102%.

Regarding `CO[C@H]1C[C@@H]2CC[C@@H](C)[C@@](O)(O2)C(=O)C(=O)N2CCCC[C@H]2C(=O)O[C@H]([C@H](C)C[C@@H]2CC[C@@H](O)[C@H](OC)C2)CC(=O)[C@H](C)/C=C(\C)[C@@H](O)[C@@H](OC)C(=O)[C@H](C)C[C@H](C)/C=C/C=C/C=C/1C` [Sirolimus] (30 nM), the normalised viability in the test on DU-4475 [7] worked out at 48.5%; in the test on HDQ-P1 [8], 60.8%; in the test with MDA-MB-453 [9], 29%; in the test on CAL-51 [10], 29.3%; in the test with CAL-148 [11] it was 46.8%; in the test with CAL-85-1 [12], 56.1%.

Take `CN1CCN(c2nc(C3=C(c4c[nH]c5ccccc45)C(=O)NC3=O)c3ccccc3n2)CC1` [Sotrastaurin] (300 nM): the normalised viability turned out to be 99.9% in the test with DU-4475 [7]; 56.9% in the test on HDQ-P1 [8]; 96.2% in the test on MDA-MB-453 [9]; 87% with CAL-51 [10]; 120% in the test on CAL-148 [11]; 117% in the test with CAL-85-1 [12].

With `CC/C(=C(\c1ccccc1)c1ccc(OCCN(C)C)cc1)c1ccccc1` [Tamoxifen] (300 nM), the normalised viability in the test with DU-4475 [7] turned out to be 113%; in the test on HDQ-P1 [8], 93.8%; with MDA-MB-453 [9], 97.8%; in the test with CAL-51 [10], 89.5%; with CAL-148 [11], 112%; with CAL-85-1 [12], 106%.

`COc1cc2c(N3CCN(C(=O)Nc4ccc(OC(C)C)cc4)CC3)ncnc2cc1OCCCN1CCCCC1` [Tandutinib] (30 nM): the normalised viability is 96.3% in the test with DU-4475 [7]; 70.4% in the test with HDQ-P1 [8]; 108% in the test on MDA-MB-453 [9]; 106% with CAL-51 [10]; 103% in the test on CAL-148 [11]; 110% with CAL-85-1 [12].

Regarding `C[C@@H](C(=O)O)c1ccc(-c2ccccc2)c(F)c1` [Tarenflurbil] (300 nM), the normalised viability amounted to 89.8% in the test with DU-4475 [7]; 64.5% in the test with HDQ-P1 [8]; 104% in the test with MDA-MB-453 [9]; 117% in the test with CAL-51 [10]; 93.6% in the test with CAL-148 [11]; 101% in the test with CAL-85-1 [12].

On to `Cn1nnc2c(C(N)=O)ncn2c1=O` [Temozolomide] (300 nM), for which the normalised viability was found to be 116% with DU-4475 [7]; 72.5% in the test with HDQ-P1 [8]; 93.8% in the test on MDA-MB-453 [9]; 88.4% in the test with CAL-51 [10]; 89.2% with CAL-148 [11]; 104% with CAL-85-1 [12].

On to `CC[C@@H]1C(=O)N(C)c2cnc(Nc3ccc(C(=O)N[C@H]4CC[C@H](N5CCN(CC6CC6)CC5)CC4)cc3OC)nc2N1C(C)C` [Volasertib] (30 nM), for which the normalised viability with DU-4475 [7] stood at 58.8%; in the test with HDQ-P1 [8], 49.7%; in the test on MDA-MB-453 [9], 31.5%; in the test on CAL-51 [10], 40.5%; in the test with CAL-148 [11], 25.4%; in the test with CAL-85-1 [12], 45.9%.
